For orientation: melting point means the temperature of the solid-liquid transition. As usually defined, the pIC50 is −log10 of the IC50, conventionally taken in molar units. Read a high pIC50 as a small IC50.

pIC50: −log10 of the molar value.

Series [1] has as its system MEK. The experiment in a line: Cellular Assay for Measuring MEK Inhibition (inhibition of ERK phosphorylation in C26 cells, Western blot). The series is classed as cell-based, murine. As to conditions: for % Inhibition @ 0.1 μM / % Inhibition @ 1 μM / % Inhibition @ 10 μM: ERK phosphorylation in C26 cells; for pIC50: inhibition of ERK phosphorylation in murine colon 26 (C26) carcinoma cells, determined graphically from dose response curve. In outline:
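Read-out is phospho-ERK1/2 by Western blot, normalized against total ERK1/2 after stripping and re-probing. Murine C26 colon carcinoma cells in exponential growth were exposed to a range of compound concentrations at 37° C before lysis.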
For orientation: In western blotting, separated proteins are transferred to a membrane and probed.

Take `C=COCCONC(=O)c1cc(Cl)c(F)c(F)c1Nc1ccc(I)cc1F` [Example 60, 5-Chloro-3,4-difluoro-2-(2-fluoro-4-iodo-phenylamino)-N-(2-vinyloxy-ethoxy)-benzamide]: the melting point fell in the range of 119 to 120 °C. `O=C(NOCCO)c1cc(F)c(F)cc1Nc1ccc(I)cc1F` [Example 18, 4,5-Difluoro-2-(2-fluoro-4-iodo-phenylamino)-N-(2-hydroxy-ethoxy)-benzamide]: the melting point was 189.6 to 190.6 °C. `O=C(NOCC(O)CO)c1cc(Br)c(F)c(F)c1Nc1ccccc1F` (centres unmarked) [Example 84, 5-Bromo-N-(2,3-dihydroxy-propoxy)-3,4-difluoro-2-(2-fluoro-phenylamino)-benzamide] showed a melting point of 143.5 to 144.5 °C. Regarding `COCCONC(=O)c1cc(F)c(F)c(F)c1Nc1ccc(I)cc1C` [Example 138, 3,4,5-Trifluoro-2-(4-iodo-2-methyl-phenylamino)-N-(2-methoxy-ethoxy)-benzamide], in series [1], the “% Inhibition @ 0.1 μM” value was 0% and the “% Inhibition @ 1 μM” value was determined as 19.6%.

As for `CCC(O)CONC(=O)c1cc(F)c(F)c(F)c1Nc1ccc(I)cc1C` (centres unmarked) [Example 106, 3,4,5-Trifluoro-N-(2-hydroxy-butoxy)-2-(4-iodo-2-methyl-phenylamino)-benzamide], in series [1], the “% Inhibition @ 0.1 μM” value was determined as 13.2% and the “% Inhibition @ 1 μM” value is listed as 81.6%.

For the compound `O=C(NOCC1(CO)CC1)c1ccc(F)c(F)c1Nc1ccc(I)cc1F` [Example 218, 3,4-Difluoro-2-(2-fluoro-4-iodo-phenylamino)-N-(1-hydroxymethyl-cyclopropylmethoxy)-benzamide], in series [1], the “% Inhibition @ 0.1 μM” value was found to be 87% and the “% Inhibition @ 1 μM” value turned out to be 96.9%. Compound `O=C(NOCCCO)c1cc(Br)c(F)c(F)c1Nc1ccc(I)cc1Cl` [Example 31, 5-Bromo-2-(2-chloro-4-iodo-phenylamino)-3,4-difluoro-N-(3-hydroxy-propoxy)-benzamide] had a melting point of 120 to 121 °C.

As to `CC(C)(O)CONC(=O)c1cc(F)c(F)c(F)c1Nc1ccc(I)cc1Cl` [Example 170, 2-(2-Chloro-4-iodo-phenylamino)-3,4,5-trifluoro-N-(2-hydroxy-2-methyl-propoxy)-benzamide], in series [1], the “% Inhibition @ 0.1 μM” value is 19% and the “% Inhibition @ 1 μM” value is given as 85.7%. For `Cc1cc(I)ccc1Nc1c(C(=O)NOCC(C)(C)O)cc(Cl)c(F)c1F` [Example 176, 5-Chloro-3,4-difluoro-N-(2-hydroxy-2-methyl-propoxy)-2-(4-iodo-2-methyl-phenylamino)-benzamide], in that order: 14.1% and 87.7%. Consider `O=C(NOCC(O)COc1ccccc1)c1cc(F)c(F)c(F)c1Nc1ccc(I)cc1Cl` (centres unmarked) [Example 184, 2-(2-Chloro-4-iodo-phenylamino)-3,4,5-trifluoro-N-(2-hydroxy-3-phenoxy-propoxy)-benzamide], for which, in series [1], the “% Inhibition @ 0.1 μM” value is given as 16.1% and the “% Inhibition @ 1 μM” value is listed as 82.5%.

In the case of `CC(C)(O)CONC(=O)c1ccc(F)c(F)c1Nc1ccc(Br)cc1F` [Example 182, 2-(4-Bromo-2-fluoro-phenylamino)-3,4-difluoro-N-(2-hydroxy-2-methyl-propoxy)-benzamide], in series [1], the “% Inhibition @ 0.1 μM” value came out at 13.1% and the “% Inhibition @ 1 μM” value came out at 81.9%. For `O=C(NOCC(O)CN1CCOCC1)c1cc(F)c(F)cc1Nc1ccc(I)cc1F` (centres unmarked) [Example 153, 4,5-Difluoro-2-(2-fluoro-4-iodo-phenylamino)-N-(2-hydroxy-3-morpholin-4-yl-propoxy)-benzamide], in that order: 13.9% and 89.5%. Compound `Cc1cc(I)ccc1Nc1c(C(=O)NOCC(O)CN2CCOCC2)cc(Br)c(F)c1F` (centres unmarked) [Example 147, 5-Bromo-3,4-difluoro-N-(2-hydroxy-3-morpholin-4-yl-propoxy)-2-(4-iodo-2-methyl-phenylamino)-benzamide] had a pIC50 in series [1] of 7.00. Turning to `Cc1cc(I)ccc1Nc1c(C(=O)NOCC(O)CO)cc(Br)c(F)c1F` (centres unmarked) [Example 91, 5-Bromo-N-(2,3-dihydroxy-propoxy)-3,4-difluoro-2-(4-iodo-2-methyl-phenylamino)-benzamide], in series [1], the “% Inhibition @ 0.1 μM” value is recorded as 89.4% and the “% Inhibition @ 1 μM” value was 98.9%. Turning to `O=C(NOCC(O)C(F)(F)F)c1ccc(F)c(F)c1Nc1ccc(F)cc1F` (centres unmarked) [Example 212, 2-(2,4-Difluoro-phenylamino)-3,4-difluoro-N-(3,3,3-trifluoro-2-hydroxy-propoxy)-benzamide], in series [1], the “% Inhibition @ 1 μM” value was determined as 20.1% and the “% Inhibition @ 10 μM” value amounted to 85.1%. `CC(O)CONC(=O)c1cc(Cl)c(F)c(F)c1Nc1ccc(I)cc1Cl` (centres unmarked) [Example 161, 5-Chloro-2-(2-chloro-4-iodo-phenylamino)-3,4-difluoro-N-(2-hydroxy-propoxy)-benzamide]: the negative logarithm of the IC50 (pIC50) in series [1] is 7.82. The compound `CC(CO)ONC(=O)c1ccc(F)c(F)c1Nc1ccc(I)cc1F` (centres unmarked) [Example 128, 3,4-Difluoro-2-(2-fluoro-4-iodo-phenylamino)-N-(2-hydroxy-1-methyl-ethoxy)-benzamide] had a pIC50 in series [1] of 8.05. On to `O=C(NOCC(O)CN1CCOCC1)c1cc(Cl)c(F)c(F)c1Nc1ccc(I)cc1F` (centres unmarked) [Example 152, 5-Chloro-3,4-difluoro-2-(2-fluoro-4-iodo-phenylamino)-N-(2-hydroxy-3-morpholin-4-yl-propoxy)-benzamide], for which, in series [1], the “% Inhibition @ 0.1 μM” value is on record as 59.2% and the “% Inhibition @ 1 μM” value was 90.3%. `CC(O)CONC(=O)c1cc(F)c(F)c(F)c1Nc1ccc(I)cc1Cl` (centres unmarked) [Example 160, 2-(2-Chloro-4-iodo-phenylamino)-3,4,5-trifluoro-N-(2-hydroxy-propoxy)-benzamide]: in series [1], the “% Inhibition @ 0.1 μM” value is listed as 71.9% and the “% Inhibition @ 1 μM” value is given as 96.8%.

Consider `O=C(NOCCNc1ccccc1)c1cc(Br)c(F)c(F)c1Nc1ccc(I)cc1Cl` [Example 235, 5-Bromo-2-(2-chloro-4-iodo-phenylamino)-3,4-difluoro-N-(2-phenylamino-ethoxy)-benzamide], for which the pIC50 in series [1] was 7.21.

For `O=C(NOCC1CC1CO)c1cc(F)c(F)cc1Nc1ccc(I)cc1F` (centres unmarked) [Example 217, 4,5-Difluoro-2-(2-fluoro-4-iodo-phenylamino)-N-(2-hydroxymethyl-cyclopropylmethoxy)-benzamide], in series [1], the “% Inhibition @ 0.1 μM” value is 26.9% and the “% Inhibition @ 1 μM” value worked out at 93.1%. Compound `O=C(NOCCO)c1cc(F)c(F)cc1Nc1ccc(I)cc1Cl` [Example 17, 2-(2-Chloro-4-iodo-phenylamino)-4,5-difluoro-N-(2-hydroxy-ethoxy)-benzamide] had a negative-log IC50 (pIC50) in series [1] of 7.35. For `CCC(O)CONC(=O)c1cc(Cl)c(F)c(F)c1Nc1ccc(I)cc1F` (centres unmarked) [Example 114, 5-Chloro-3,4-difluoro-2-(2-fluoro-4-iodo-phenylamino)-N-(2-hydroxy-butoxy)-benzamide], in series [1], the “% Inhibition @ 0.1 μM” value is 90.5% and the “% Inhibition @ 1 μM” value worked out at 97.3%. For `CC(CO)ONC(=O)c1ccc(F)c(F)c1Nc1ccc(F)cc1F` (centres unmarked) [Example 133, 2-(2,4-Difluoro-phenylamino)-3,4-difluoro-N-(2-hydroxy-1-methyl-ethoxy)-benzamide] the same measures were 0% and 26.4%. Regarding `CC(O)CONC(=O)c1cc(Cl)c(F)c(F)c1Nc1ccc(F)cc1F` (centres unmarked) [Example 166, 5-Chloro-2-(2,4-difluoro-phenylamino)-3,4-difluoro-N-(2-hydroxy-propoxy)-benzamide], in series [1], the “% Inhibition @ 0.1 μM” value was 0%, the “% Inhibition @ 1 μM” value worked out at 31.9% and the “% Inhibition @ 10 μM” value is given as 88.7%. `COCCONC(=O)c1cc(Br)c(F)c(F)c1Nc1ccc(I)cc1Cl` [Example 139, 5-Bromo-2-(2-chloro-4-iodo-phenylamino)-3,4-difluoro-N-(2-methoxy-ethoxy)-benzamide]: the negative-log IC50 (pIC50) in series [1] is 6.44. In the case of `CN(OCCO)C(=O)c1ccc(F)cc1Nc1ccc(I)cc1Cl` [Example 81, 2-(2-Chloro-4-iodo-phenylamino)-4-fluoro-N-(2-hydroxy-ethoxy)-N-methyl-benzamide], the pIC50 in series [1] was 6.87. The same measure, in the same setting: the value for `Cc1cc(I)ccc1Nc1c(C(=O)NOCC(C)O)ccc(F)c1F` (centres unmarked) [Example 162, 3,4-Difluoro-N-(2-hydroxy-propoxy)-2-(4-iodo-2-methyl-phenylamino)-benzamide] was 8.11. For `Cc1cc(I)ccc1Nc1c(C(=O)NOCC(C)O)cc(Br)c(F)c1F` (centres unmarked) [Example 159, 5-Bromo-3,4-difluoro-N-(2-hydroxy-propoxy)-2-(4-iodo-2-methyl-phenylamino)-benzamide], in series [1], the “% Inhibition @ 0.1 μM” value came to 88.4% and the “% Inhibition @ 1 μM” value is on record as 100%.

As to `Cc1cc(I)ccc1Nc1c(C(=O)NOCCNc2ccccc2)ccc(F)c1F` [Example 234, 3,4-Difluoro-2-(4-iodo-2-methyl-phenylamino)-N-(2-phenylamino-ethoxy)-benzamide], the pIC50 in series [1] is 7.27. The compound `COCCONC(=O)c1cc(Br)c(F)c(F)c1Nc1ccc(I)cc1C` [Example 137, 5-Bromo-3,4-difluoro-2-(4-iodo-2-methyl-phenylamino)-N-(2-methoxy-ethoxy)-benzamide] showed a pIC50 in series [1] of 7.00.

On to `CC(CO)ONC(=O)c1cc(Cl)c(F)c(F)c1Nc1ccc(I)cc1Cl` (centres unmarked) [Example 127, 5-Chloro-2-(2-chloro-4-iodo-phenylamino)-3,4-difluoro-N-(2-hydroxy-1-methyl-ethoxy)-benzamide], for which, in series [1], the negative logarithm of the IC50 (pIC50) is 7.60. Against the preceding compound, the pIC50 is 0.60 log units higher.

In the case of `O=C(NOCCCO)c1cc(Br)c(F)c(F)c1Nc1ccc(I)cc1Cl` [Example 98, 5-Bromo-2-(2-chloro-4-iodo-phenylamino)-3,4-difluoro-N-(3-hydroxy-propoxy)-benzamide], in series [1], the pIC50 is 7.96. Consider `CCC(O)CONC(=O)c1cc(F)c(F)cc1Nc1ccc(I)cc1F` (centres unmarked) [Example 115, 4,5-Difluoro-2-(2-fluoro-4-iodo-phenylamino)-N-(2-hydroxy-butoxy)-benzamide], for which, in series [1], the “% Inhibition @ 0.1 μM” value came out at 94.8% and the “% Inhibition @ 1 μM” value turned out to be 98.5%.

The values are drawn from US6960614B2, “Oxygenated esters of 4-lodo phenylamino benzhydroxamic acids” (Warner-Lambert Company, priority 2000, dated 2005).
